Experimental data taken from the CheMixHub ionic liquid set.

Experiment: xn = mol fraction of the nth substance listed
Details: 100 kPa

CC[n+]1ccn(C)c1.O=S(=O)([O-])O + CC(C)[C@H](N)C(=O)O + O
viscosity [mPa·s]
Details	293.15 K	298.15 K	303.15 K	308.15 K	313.15 K
x2 = 0, x1 = 0.0005421	1.046	0.929	0.824	0.75	0.678
x2 = 0, x1 = 0.0009056	1.068	0.949	0.843	0.759	0.684
x2 = 0, x1 = 0.001263	1.073	0.966	0.866	0.78	0.697
x2 = 0.0003674, x1 = 0.0009053	1.09	0.958	0.851	0.767	0.691
x2 = 0.0003913, x1 = 0.0005419	1.068	0.938	0.832	0.758	0.686
x2 = 0.0003924, x1 = 0.001263	1.096	0.975	0.875	0.787	0.705
x2 = 0.0007372, x1 = 0.001262	1.117	0.983	0.882	0.794	0.711
x2 = 0.000749, x1 = 0.0009049	1.112	0.966	0.859	0.774	0.698
x2 = 0.0007642, x1 = 0.0005417	1.09	0.947	0.84	0.765	0.693
x2 = 0.001083, x1 = 0.0005415	1.108	0.954	0.847	0.771	0.699
x2 = 0.001089, x1 = 0.0009046	1.132	0.974	0.866	0.781	0.704
x2 = 0.001118, x1 = 0.001262	1.139	0.992	0.89	0.802	0.718
x2 = 0.001457, x1 = 0.001262	1.159	1	0.897	0.808	0.725
x2 = 0.001475, x1 = 0.0009042	1.155	0.983	0.874	0.788	0.711
x2 = 0.001477, x1 = 0.0005413	1.131	0.963	0.855	0.779	0.706
x2 = 0.001795, x1 = 0.0005411	1.149	0.97	0.861	0.785	0.712
x2 = 0.001812, x1 = 0.0009039	1.175	0.991	0.881	0.795	0.717
x2 = 0.001817, x1 = 0.001261	1.18	1.008	0.905	0.816	0.731
x2 = 0.002249, x1 = 0.0005409	1.176	0.98	0.871	0.794	0.721
x2 = 0.002256, x1 = 0.001261	1.206	1.018	0.915	0.824	0.739
x2 = 0.002283, x1 = 0.0009035	1.203	1.001	0.891	0.804	0.726
